A word on the bioavailability: it is dose-corrected exposure relative to a reference, in per cent.

Where two headings read alike, the source gives them in different places.

This is an account of results in patent US12473298B2, “Amide compounds, preparation method therefor, and use thereof in the medical field” (Shanghai Synergy Pharmaceutical Sciences Co., Ltd., priority 2019, dated 2025).

Data set [1] deals with human diffuse large cell lymphoma B lymphocytes (Pfeiffer cell). The experiment in a line: Pfeiffer cell proliferation, Calcein AM staining. Type of data set: cell-based. The conditions noted are these: Homo sapiens, Pfeiffer.
Text: The diffuse large cell lymphoma B lymphocytes (Pfeiffer cells) were collected and counted when growing well.
Data set [2] concerns human diffuse large B-cell lymphoma cells (Karpas 422 cell). The experiment in a line: Karpas 422 cell proliferation, Calcein AM staining. Type of data set: cell-based. As to conditions: Homo sapiens.
A short description of data set [3]: Pharmacokinetic experiment in rats. The format is in vivo, SD rats. The conditions noted are these: for AUC / Cmax / bioavailability: male, SD, rat, plasma, rats; for AUC: read-out: Area Curve (AUC, ng/mL · h); for half-life: male, SD, rat, plasma; rats, Intravenous-Dose 4 mg/kg; read-out: Half life T1/2, h) (converted); for Cmax: read-out: Blood Drug level (Cmax, ng/mL); for bioavailability: oral 20 mg/kg vs intravenous 4 mg/kg, read-out: Bioavailability (P %). The protocol: A certain amount of compound was weighted and dissolved in 0.1% Tween under vortex and ultrasound, and 0.5% carboxymethyl cellulose sodium (CMC-NA) solution was added to form a uniform solution.

The target in a further data set is wild-type EZH2 (Homo sapiens (Human), UniProt Q15910). Description: radiometric assay, activity to wild-type EZH2 of PRC2. The conditions noted are these: read-out: Wild-type EZH2 IC50 Nanomoles per Liter.
Another data set has as its target Mutant type EZH2(Y641F) (Homo sapiens (Human), UniProt Q15910, Y641F). Description: AlphaLISA, mutant type PRC2 complex EZH2(Y641F). Type of data set: biochemical. As to conditions: read-out: Mutant type EZH2(Y641F) IC50 Nanomoles per Liter. A general note: Alpha assays give light when donor and acceptor beads are brought close together.
The target in another data set is Mutant type EZH2(A677G) (Homo sapiens (Human), UniProt Q15910, A677G). Description: AlphaLISA, mutant type PRC2 complex EZH2(A677G). Type of data set: biochemical. The conditions noted are these: read-out: Mutant type EZH2(A677G) IC59 Nanomoles per Liter.
Setting [4] is: data of 14th day, read-out: Pfeiffer Proliferation IC50 Nanomoles per Liter.
[5] abbreviates: KARPAS-422, data of 14th day, read-out: Karpas422 Proliferation IC50 Nanomoles per Liter.
Setting [6] is: read-out: Pfeiffer Proliferation IC50 Nanomoles per Liter (nM).
The mark [7] stands for this setting: KARPAS-422, read-out: Karpas422 Proliferation IC50 Nanomoles per Liter (nM).

Chain of wild-type EZH2 (Q15910 whole entry): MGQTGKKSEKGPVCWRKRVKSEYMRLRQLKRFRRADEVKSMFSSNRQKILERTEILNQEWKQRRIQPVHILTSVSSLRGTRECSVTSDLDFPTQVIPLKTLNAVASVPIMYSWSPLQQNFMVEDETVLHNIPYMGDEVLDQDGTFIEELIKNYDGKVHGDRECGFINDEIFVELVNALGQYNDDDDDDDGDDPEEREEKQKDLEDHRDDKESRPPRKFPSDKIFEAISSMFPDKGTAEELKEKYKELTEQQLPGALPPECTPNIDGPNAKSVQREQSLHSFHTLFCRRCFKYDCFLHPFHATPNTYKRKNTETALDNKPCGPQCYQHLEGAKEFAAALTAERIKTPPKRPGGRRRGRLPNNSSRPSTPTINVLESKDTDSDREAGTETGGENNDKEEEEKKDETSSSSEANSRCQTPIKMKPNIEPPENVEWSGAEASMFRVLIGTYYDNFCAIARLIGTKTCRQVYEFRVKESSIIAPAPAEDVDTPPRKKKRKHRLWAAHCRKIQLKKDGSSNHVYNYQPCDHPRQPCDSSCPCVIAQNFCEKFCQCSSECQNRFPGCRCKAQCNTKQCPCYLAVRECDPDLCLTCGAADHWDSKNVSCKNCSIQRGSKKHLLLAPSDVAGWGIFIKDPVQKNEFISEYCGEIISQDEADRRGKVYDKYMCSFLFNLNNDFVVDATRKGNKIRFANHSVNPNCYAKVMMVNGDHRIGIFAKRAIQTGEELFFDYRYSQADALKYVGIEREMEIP
Chain of wild-type EZH2 (O75530 whole entry partner): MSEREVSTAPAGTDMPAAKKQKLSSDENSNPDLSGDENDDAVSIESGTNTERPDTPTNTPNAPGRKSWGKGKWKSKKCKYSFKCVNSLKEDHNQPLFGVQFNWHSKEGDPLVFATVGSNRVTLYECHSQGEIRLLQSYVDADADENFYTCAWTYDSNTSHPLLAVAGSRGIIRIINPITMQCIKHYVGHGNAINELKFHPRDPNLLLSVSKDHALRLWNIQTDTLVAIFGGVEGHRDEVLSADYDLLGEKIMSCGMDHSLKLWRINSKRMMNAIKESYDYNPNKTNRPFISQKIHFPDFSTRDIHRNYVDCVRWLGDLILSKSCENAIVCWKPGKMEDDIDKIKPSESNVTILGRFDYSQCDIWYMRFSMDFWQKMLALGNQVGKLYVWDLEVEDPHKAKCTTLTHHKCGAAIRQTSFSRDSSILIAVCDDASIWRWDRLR
Chain of wild-type EZH2 (Q15022 whole entry partner): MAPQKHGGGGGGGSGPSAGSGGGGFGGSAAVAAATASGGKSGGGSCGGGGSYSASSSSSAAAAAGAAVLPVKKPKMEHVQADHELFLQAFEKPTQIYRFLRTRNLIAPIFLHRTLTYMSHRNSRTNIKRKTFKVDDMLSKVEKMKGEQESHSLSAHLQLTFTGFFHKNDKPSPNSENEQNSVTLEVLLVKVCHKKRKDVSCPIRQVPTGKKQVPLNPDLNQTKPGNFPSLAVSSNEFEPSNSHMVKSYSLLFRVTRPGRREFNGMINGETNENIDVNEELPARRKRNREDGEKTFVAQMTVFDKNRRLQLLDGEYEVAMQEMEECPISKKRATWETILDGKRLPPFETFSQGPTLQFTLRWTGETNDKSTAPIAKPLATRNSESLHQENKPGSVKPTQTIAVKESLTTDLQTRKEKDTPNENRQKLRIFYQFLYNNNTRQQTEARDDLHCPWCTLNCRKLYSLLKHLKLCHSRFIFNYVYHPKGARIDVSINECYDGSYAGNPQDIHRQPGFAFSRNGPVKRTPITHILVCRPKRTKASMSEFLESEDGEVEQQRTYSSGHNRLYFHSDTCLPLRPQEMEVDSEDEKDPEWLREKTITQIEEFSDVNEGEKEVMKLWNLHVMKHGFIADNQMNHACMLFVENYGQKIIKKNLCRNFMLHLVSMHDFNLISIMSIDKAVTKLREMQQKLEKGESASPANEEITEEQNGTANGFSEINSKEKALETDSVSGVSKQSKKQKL
Chain of Mutant type EZH2(A677G) (Q15910 whole entry A677G): as the sequence (Q15910 whole entry) above, with A677G counted along it
Chain of Mutant type EZH2(A677G) (O75530 whole entry partner): as the sequence (O75530 whole entry partner) above
Chain of Mutant type EZH2(A677G) (Q15022 whole entry partner): as the sequence (Q15022 whole entry partner) above
Chain of Mutant type EZH2(A677G) (Q09028 whole entry partner): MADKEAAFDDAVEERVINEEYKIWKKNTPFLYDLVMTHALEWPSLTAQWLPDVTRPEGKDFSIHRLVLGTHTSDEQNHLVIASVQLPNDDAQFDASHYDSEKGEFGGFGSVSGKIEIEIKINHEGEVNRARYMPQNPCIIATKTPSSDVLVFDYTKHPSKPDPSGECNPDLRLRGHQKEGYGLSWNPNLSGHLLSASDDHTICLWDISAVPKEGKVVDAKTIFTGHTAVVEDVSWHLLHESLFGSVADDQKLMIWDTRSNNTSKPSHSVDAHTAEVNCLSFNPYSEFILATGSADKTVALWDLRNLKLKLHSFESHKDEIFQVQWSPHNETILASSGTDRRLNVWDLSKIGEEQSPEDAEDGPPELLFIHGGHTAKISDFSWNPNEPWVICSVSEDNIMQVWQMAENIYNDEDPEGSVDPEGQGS
Chain of Mutant type EZH2(A677G) (Q6ZN18 whole entry partner): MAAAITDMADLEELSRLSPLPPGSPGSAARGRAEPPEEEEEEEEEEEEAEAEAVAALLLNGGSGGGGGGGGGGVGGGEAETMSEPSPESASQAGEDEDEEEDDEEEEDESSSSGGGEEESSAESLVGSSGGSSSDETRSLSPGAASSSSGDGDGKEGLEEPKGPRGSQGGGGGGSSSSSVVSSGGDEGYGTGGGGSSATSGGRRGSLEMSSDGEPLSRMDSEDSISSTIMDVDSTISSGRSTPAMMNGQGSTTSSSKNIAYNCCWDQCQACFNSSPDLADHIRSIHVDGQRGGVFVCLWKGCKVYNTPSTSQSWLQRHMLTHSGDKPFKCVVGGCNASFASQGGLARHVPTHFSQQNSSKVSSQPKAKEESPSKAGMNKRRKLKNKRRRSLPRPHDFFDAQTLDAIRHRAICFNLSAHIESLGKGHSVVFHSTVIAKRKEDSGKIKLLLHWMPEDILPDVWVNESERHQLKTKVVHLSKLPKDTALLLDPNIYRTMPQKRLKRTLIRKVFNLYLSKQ
Chain of Mutant type EZH2(Y641F) (Q15910 whole entry Y641F): as the sequence (Q15910 whole entry) above, with Y641F counted along it
Chain of Mutant type EZH2(Y641F) (O75530 whole entry partner): as the sequence (O75530 whole entry partner) above
Chain of Mutant type EZH2(Y641F) (Q15022 whole entry partner): as the sequence (Q15022 whole entry partner) above
Chain of Mutant type EZH2(Y641F) (Q09028 whole entry partner): as the sequence (Q09028 whole entry partner) above
Chain of Mutant type EZH2(Y641F) (Q6ZN18 whole entry partner): as the sequence (Q6ZN18 whole entry partner) above
Experimental for wild-type EZH2: 25 μL of reaction solution was transferred to a scintillation plate, which was incubated at room temperature for 1 hour (h) and washed with deionized water and 0.1% Tween 20 for three times. A PerkinElmer liquid scintillation/luminescence counter was used to read the value, and GraphPad Prism 5 was used to calculate the median inhibitory concentration (IC50) of the compounds.

Take `CCN(c1cc(-c2ccc3c(c2)N(C)C(=O)C32CCN(C(=O)OC)CC2)cc(C(=O)NCc2c(C)cc(C)[nH]c2=O)c1C)C1CCOCC1` [Example 32, Methyl 6-(3-(((4,6-dimethyl-2-carbonyl-1,2-dihydropyridin-3-yl)methyl)carbamoyl)-5-(ethyl(tetrahydro-2H-pyran-4-yl)amino)-4-methylphenyl)-1-methyl-2-carbonylspiro[dihydroindole-3,4′-piperidine]-1′-carboxylate]: the IC50 is 1.21 nM in data set [1] (setting [4]) and 1.73 nM in data set [2] (setting [5]). The figures for the AUC in data set [3] (Intravenous-Dose 4 mg/kg) and in data set [3] (Oral-Dose 20 mg/kg) were 943 ng·h/mL and 1360 ng·h/mL, respectively. The half-life in data set [3] is 1.64 h. For the same compound, in data set [3] (Oral-Dose 20 mg/kg), the Cmax worked out at 431 ng/mL. Moreover, in data set [3], the bioavailability turned out to be 28.8%.
As to `CCN(c1cc(-c2ccc3c(c2)N(CC(F)(F)C(F)(F)F)C(=O)C32CCOCC2)cc(C(=O)NCc2c(C)cc(C)[nH]c2=O)c1C)C1CCOCC1` [Example 39, N-((4,6-dimethyl-2-oxo-1,2-dihydropyridin-3-yl)methyl)-3-(ethyl(tetrahydro-2H-pyran-4-yl)amino)-2-methyl-5-(2-oxo-1-(2,2,3,3,3-pentafluoropropyl)-2′,3′,5′,6′-tetrahydrospiro[dihydroindole-3,4′-pyran]-6-yl)benzamide], the IC50 in data set [1] (setting [6]) is 0.3 nM. In addition, in data set [2] (setting [7]), the IC50 is 0.82 nM. Besides, the AUC in data set [3] (Intravenous-Dose 4 mg/kg) came out at 897 ng·h/mL. For the same compound, in data set [3], the half-life was 1.62 h and the bioavailability is 24.4%. In addition, in data set [3] (Oral-Dose 20 mg/kg), the AUC was 1090 ng·h/mL and the Cmax is 478 ng/mL.
For the compound `CCN(c1cc(-c2ccc3c(c2)CCC32CCOCC2)cc(C(=O)NCc2c(OC)cc(C)[nH]c2=O)c1C)C1CCOC(C)(C)C1` (centres unmarked) [Example 43, 3-((2,2-dimethyltetrahydro-2H-pyran-4-yl)(ethyl)amino)-5-(2,2′,3,3′,5′,6′-hexahydrospiro[indene-1,4-pyran]-5-yl)-N-((4-methoxy-6-methyl-2-oxo-1,2-dihydropyridin-3-yl)methyl)-2-methylbenzamide], in data set [1] (setting [6]), the IC50 is 1.19 nM. Also, the IC50 in data set [2] (setting [7]) is 1.36 nM. Besides, in data set [3] (Intravenous-Dose 4 mg/kg), the AUC was 1030 ng·h/mL. Further, in data set [3], the half-life was 1.64 h and the bioavailability was 31.3%. In data set [3] (Oral-Dose 20 mg/kg), the AUC is 1620 ng·h/mL and the Cmax came out at 490 ng/mL.
As to `CCN(c1cc(-c2ccc3c(c2)N(CCOC)C(=O)C32CCOCC2)cc(C(=O)NCc2c(C)cc(C)[nH]c2=O)c1C)C1CCOCC1` [Example 45, N-((4,6-dimethyl-2-oxo-1,2-dihydropyridin-3-yl)methyl)-3-(ethyl(tetrahydro-2H-pyran-4-yl)amino)-5-(1-(2-methoxyethyl)-2-oxo-2′,3′,5′,6′-tetrahydrospiro[dihydroindole-3,4′-pyran]-6-yl)-2-methylbenzamide], the IC50 in data set [1] (setting [4]) was 0.12 nM; in data set [2] (setting [5]) it was 0.43 nM; at wild-type EZH2, 0.71 nM. Besides, the AUC in data set [3] (Intravenous-Dose 4 mg/kg) was found to be 944 ng·h/mL; in data set [3] (Oral-Dose 20 mg/kg), 1310 ng·h/mL. In addition, in data set [3], the half-life is 1.71 h. Moreover, in data set [3] (Oral-Dose 20 mg/kg), the Cmax was 505 ng/mL. Moreover, the bioavailability in data set [3] came to 27.7%.
Consider `CCN(c1cc(-c2ccc3c(c2)NC(=O)C32CCN(C(=O)OC(C)(C)C)CC2)cc(C(=O)NCc2c(C)cc(C)[nH]c2=O)c1C)C1CCOCC1` [Example 79, Tert-butyl 6-(3-(((4,6-dimethyl-2-oxo-1,2-dihydropyridin-3-yl)methyl)carbamoyl)-5-(ethyl(tetrahydro-2H-pyran-4-yl)amino)-4-methylphenyl)-2-oxospiro[dihydroindole-3,4′-piperidine]-1′-carboxylate], for which the IC50 in data set [1] (setting [4]) is 1.65 nM; in data set [2] (setting [5]) it was 2.65 nM; on wild-type EZH2 it was 1.09 nM.
Consider `CCN1CCC2(CC1)C(=O)Nc1cc(-c3cc(C(=O)NCc4c(C)cc(C)[nH]c4=O)c(C)c(N(CC)C4CCOCC4)c3)ccc12` [Example 85, N-((4,6-dimethyl-2-oxo-1,2-dihydropyridin-3-yl)methyl)-3-(ethyl(tetrahydro-2H-pyran-4-yl)amino)-2-methyl-5-(1′-ethyl-2-oxospiro[dihydroindole-3,4′-piperidine]-6-yl)benzamide], for which the IC50 was 0.82 nM on Mutant type EZH2(Y641F); 0.38 nM at Mutant type EZH2(A677G); 2.42 nM in data set [1] (setting [4]); 2.85 nM in data set [2] (setting [5]); 0.81 nM at wild-type EZH2.
As to `CCN(c1cc(-c2ccc3c(c2)NC(=O)C32CCN(S(C)(=O)=O)CC2)cc(C(=O)NCc2c(C)cc(C)[nH]c2=O)c1C)C1CCOCC1` [Example 87, N-((4,6-dimethyl-2-oxo-1,2-dihydropyridin-3-yl)methyl)-3-(ethyl(tetrahydro-2H-pyran-4-yl)amino)-2-methyl-5-(1′-methylsulfonyl-2-oxospiro[dihydroindole-3,4′-piperidine]-6-yl)benzamide], the IC50 at Mutant type EZH2(Y641F) is 0.53 nM; in data set [1] (setting [4]) it was 1.86 nM; in data set [2] (setting [5]) it was 2.34 nM.
With `CCN(c1cc(-c2ccc3c(c2)NC(=O)C32CCS(=O)(=O)CC2)cc(C(=O)NCc2c(C)cc(C)[nH]c2=O)c1C)C1CCOCC1` [Example 90, N-((4,6-dimethyl-2-oxo-1,2-dihydropyridin-3-yl)methyl)-5-(1′,1′-dioxo-2-oxo-2′,3′,5′,6′-tetrahydrospiro[dihydroindole-3,4′-thiapyran]-6-yl)-3-(ethyl(tetrahydro-2H-pyran-4-yl)amino)-2-methylbenzamide], the IC50 at Mutant type EZH2(Y641F) is 0.73 nM; on Mutant type EZH2(A677G) it was 0.58 nM; in data set [1] (setting [4]), 2.52 nM; in data set [2] (setting [5]), 2.83 nM; on wild-type EZH2 it was 1.42 nM.
Take `CCN(c1cc(-c2ccc3c(c2)NC(=O)C32CCOCC2)cc(C(=O)NCc2c(C)cc(C)[nH]c2=O)c1C)C1CCSCC1` [Example 95, N-((4,6-Dimethyl-2-oxo-1,2-dihydropyridin-3-yl)methyl)-3-(ethyl(tetrahydro-2H-thiapyran-4-yl)amino)-2-methyl-5-(2-oxo-2′,3′,5′,6′-tetrahydrospiro[dihydroindole-3,4′-pyran]-6-yl)benzamide]: the IC50 at Mutant type EZH2(Y641F) was 0.53 nM; at Mutant type EZH2(A677G), 0.48 nM; in data set [1] (setting [4]), 2.35 nM; in data set [2] (setting [5]), 2.79 nM; on wild-type EZH2 it was 0.78 nM.
As for `CCN(c1cc(-c2ccc3c(c2)NC(=O)C32CCOCC2)cc(C(=O)NCc2c(C)cc(C)[nH]c2=O)c1C)C1CCOCC1F` (centres unmarked) [Example 103, N-((4,6-Dimethyl-2-oxo-1,2-dihydropyridin-3-yl)methyl)-3-(ethyl(3-fluoro-tetrahydro-2H-pyran-4-yl)amino)-2-methyl-5-(2-oxo-2′,3′,5′,6′-tetrahydrospiro[dihydroindole-3,4′-pyran]-6-yl)benzamide], the IC50 at Mutant type EZH2(Y641F) was 0.63 nM; at Mutant type EZH2(A677G) it was 0.52 nM; in data set [1] (setting [4]), 0.36 nM; in data set [2] (setting [5]), 0.53 nM; at wild-type EZH2, 0.92 nM.
Consider `CCN(c1cc(-c2ccc3c(c2)CCC2(CCOCC2)C3=O)cc(C(=O)NCc2c(C)cc(C)[nH]c2=O)c1C)C1CCOCC1` [Example 106, N-((4,6-Dimethyl-2-oxo-1,2-dihydropyridin-3-yl)methyl)-3-(ethyl(tetrahydro-2H-pyran-4-yl)amino)-2-methyl-5-(1-oxo-2′,3,3′,4,5′,6′-hexahydro-1H-spiro[naphthalene-2,4′-pyran]-6-yl)benzamide], for which the IC50 was 0.82 nM on Mutant type EZH2(Y641F); 0.71 nM at Mutant type EZH2(A677G); 3.41 nM in data set [1] (setting [4]); 3.89 nM in data set [2] (setting [5]); 0.98 nM on wild-type EZH2.
For `CCN(c1cc(-c2ccc3c(c2)C(=O)C2(CCN(C)CC2)C3)cc(C(=O)NCc2c(C)cc(C)[nH]c2=O)c1C)C1CCOCC1` [Example 107, N-((4,6-Dimethyl-2-oxo-1,2-dihydropyridin-3-yl)methyl)-3-(ethyl(tetrahydro-2H-pyran-4-yl)amino)-2-methyl-5-(1′-methyl-1-oxo-1,3-dihydrospiro[indene-2,4′-piperidine]-6-yl)benzamide], in that order: 0.86 nM, 0.67 nM, 4.38 nM, 5.76 nM and 1.03 nM.
Turning to `CCN(c1cc(-c2ccc3c(c2)NC(=O)C32CCNCC2)cc(C(=O)NCc2c(C)cc(C)[nH]c2=O)c1C)C1CCNCC1` [Example 117, N-((4,6-dimethyl-2-oxo-1,2-dihydropyridin-3-yl)methyl)-3-(ethyl(piperidin-4-yl)amino)-2-methyl-5-(2-oxospiro[indole-3,4′-piperidine]-6-yl)benzamide], the IC50 was 0.94 nM at Mutant type EZH2(Y641F); 0.61 nM at Mutant type EZH2(A677G); 2.31 nM in data set [1] (setting [4]); 3.57 nM in data set [2] (setting [5]); 1.08 nM on wild-type EZH2.
For the compound “N-((4,6-dimethyl-2-oxo-1,2-dihydropyridin-3-yl)methyl)-3-(ethyl(tetrahydro-2H-pyran-4-yl)amino)-5-(1-isopropyl-2′,3′,5′,6′-tetrahydrospiro[dihydroindole-3,4′-pyran]-6-yl)-2-methylbenzamide [Example 65]”, the IC50 on Mutant type EZH2(A677G) is 0.78 nM.
